Source: ChEMBL document CHEMBL1629665, “Contribution of vraSR and graSR point mutations to vancomycin resistance in vancomycin-intermediate Staphylococcus aureus” (2009)
Values after ≈ are worked out from the molar mass of the structure shown.

Legend:
Type in all cases: functional
Staphylococcus aureus [1] = assay: Antibacterial activity against vancomycin-intermediate Staphylococcus aureus Mu50 after 24 hrs by Etest
Staphylococcus aureus [2] = assay: Antibacterial activity against vancomycin-susceptible Staphylococcus aureus Mu50omega expressing vraSm mutant gene after 24 hrs by Etest
Staphylococcus aureus [3] = assay: Antibacterial activity against vancomycin-intermediate Staphylococcus aureus Mu50 after 48 hrs by Etest
Staphylococcus aureus [4] = assay: Antibacterial activity against vancomycin-susceptible Staphylococcus aureus Mu50omega after 24 hrs by Etest
Staphylococcus aureus [5] = assay: Antibacterial activity against vancomycin-susceptible Staphylococcus aureus Mu50omega expressing vraSm, graRm mutant gene after 24 hrs by Etest
Staphylococcus aureus [6] = assay: Antibacterial activity against vancomycin-susceptible Staphylococcus aureus Mu50omega expressing vraSn mutant gene after 24 hrs by Etest
Staphylococcus aureus [7] = assay: Antibacterial activity against vancomycin-susceptible Staphylococcus aureus Mu50omega after 48 hrs by Etest
Staphylococcus aureus [8] = assay: Antibacterial activity against vancomycin-susceptible Staphylococcus aureus Mu50omega expressing vraSm mutant gene after 48 hrs by Etest
Staphylococcus aureus [9] = assay: Antibacterial activity against vancomycin-susceptible Staphylococcus aureus Mu50omega expressing vraSn mutant gene after 48 hrs by Etest
Staphylococcus aureus [10] = assay: Antibacterial activity against vancomycin-susceptible Staphylococcus aureus Mu50omega expressing vraSm, graRm mutant gene after 48 hrs by Etest

With `C[C@H]1c2cccc(O)c2C(=O)C2=C(O)[C@]3(O)C(=O)C(C(N)=O)=C(O)[C@@H](N(C)C)[C@@H]3[C@@H](O)[C@@H]21.O` [DOXYCYCLINE] the MIC (Staphylococcus aureus [1]; Mu50, 24 h) was 8 µg/mL, the MIC (Staphylococcus aureus [2]) was 8 µg/mL and the MIC (Staphylococcus aureus [3]; Mu50, 48 h) was over 256 µg/mL. The MIC (Staphylococcus aureus [4]) was 8 µg/mL, the MIC (Staphylococcus aureus [5]) was 8 µg/mL and the MIC (Staphylococcus aureus [6]) was 8 µg/mL. The MIC (Staphylococcus aureus [7]) was over 256 µg/mL.

For `CC[C@H]1OC(=O)[C@H](C)[C@@H](O[C@H]2C[C@@](C)(OC)[C@@H](O)[C@H](C)O2)[C@H](C)[C@@H](O[C@@H]2O[C@H](C)C[C@H](N(C)C)[C@H]2O)[C@](C)(O)C[C@@H](C)C(=O)[C@H](C)[C@@H](O)[C@]1(C)O` [ERYTHROMYCIN], the MIC (Staphylococcus aureus [1]; Mu50, 24 h) was over 250 µg/mL, the MIC (Staphylococcus aureus [3]; Mu50, 48 h) was over 250 µg/mL and the MIC (Staphylococcus aureus [4]) was over 256 µg/mL. It also gave an MIC (Staphylococcus aureus [7]) of over 256 µg/mL.

`C[C@@H](O)[C@H]1C(=O)N2C(C(=O)O)=C(SCCNC=N)C[C@H]12` [IMIPENEM ANHYDROUS] gave an MIC (Staphylococcus aureus [1]; Mu50, 24 h) of over 32 µg/mL, an MIC (Staphylococcus aureus [8]) of over 32 µg/mL and an MIC (Staphylococcus aureus [2]) of over 32 µg/mL. The MIC (Staphylococcus aureus [3]; Mu50, 48 h) was over 32 µg/mL, the MIC (Staphylococcus aureus [4]) was 0.38 µg/mL (≈ 1.27 µM) and the MIC (Staphylococcus aureus [5]) was over 32 µg/mL. It also gave an MIC (Staphylococcus aureus [6]) of over 32 µg/mL, an MIC (Staphylococcus aureus [9]) of over 32 µg/mL and an MIC (Staphylococcus aureus [10]) of over 32 µg/mL. It also gave an MIC (Staphylococcus aureus [7]) of 0.38 µg/mL (≈ 1.27 µM).

`C[C@H]1COc2c(N3CCN(C)CC3)c(F)cc3c(=O)c(C(=O)O)cn1c23.C[C@H]1COc2c(N3CCN(C)CC3)c(F)cc3c(=O)c(C(=O)O)cn1c23.O` [LEVOFLOXACIN] gave an MIC (Staphylococcus aureus [1]; Mu50, 24 h) of over 32 µg/mL, an MIC (Staphylococcus aureus [3]; Mu50, 48 h) of over 32 µg/mL and an MIC (Staphylococcus aureus [4]) of over 32 µg/mL. For the same compound, the MIC (Staphylococcus aureus [7]) was over 32 µg/mL.

`CC(=O)NC[C@H]1CN(c2ccc(N3CCOCC3)c(F)c2)C(=O)O1` [LINEZOLID] was tested, and the MIC (Staphylococcus aureus [1]; Mu50, 24 h) was 0.5 µg/mL (≈ 1.48 µM), the MIC (Staphylococcus aureus [8]) was 0.5 µg/mL (≈ 1.48 µM) and the MIC (Staphylococcus aureus [2]) was 0.5 µg/mL (≈ 1.48 µM). The MIC (Staphylococcus aureus [3]; Mu50, 48 h) was 0.5 µg/mL (≈ 1.48 µM), the MIC (Staphylococcus aureus [4]) was 0.5 µg/mL (≈ 1.48 µM) and the MIC (Staphylococcus aureus [5]) was 0.5 µg/mL (≈ 1.48 µM). It also gave an MIC (Staphylococcus aureus [6]) of 0.5 µg/mL (≈ 1.48 µM), an MIC (Staphylococcus aureus [9]) of 0.5 µg/mL (≈ 1.48 µM) and an MIC (Staphylococcus aureus [10]) of 0.5 µg/mL (≈ 1.48 µM). The MIC (Staphylococcus aureus [7]) was 0.5 µg/mL (≈ 1.48 µM).

In the case of `COc1cccc(OC)c1C(=O)N[C@@H]1C(=O)N2[C@@H]1SC(C)(C)[C@@H]2C(=O)O` [METHICILLIN], the MIC (Staphylococcus aureus [1]; Mu50, 24 h) is reported as over 256 µg/mL, the MIC (Staphylococcus aureus [3]; Mu50, 48 h) is reported as over 256 µg/mL and the MIC (Staphylococcus aureus [4]) is reported as over 256 µg/mL. The MIC (Staphylococcus aureus [7]) was over 256 µg/mL.

For `CN(C)c1ccc(O)c2c1C[C@H]1C[C@H]3[C@H](N(C)C)C(O)=C(C(N)=O)C(=O)[C@@]3(O)C(O)=C1C2=O` [MINOCYCLINE], the MIC (Staphylococcus aureus [1]; Mu50, 24 h) was 12 µg/mL (≈ 26.2 µM), the MIC (Staphylococcus aureus [8]) was 24 µg/mL (≈ 52.5 µM) and the MIC (Staphylococcus aureus [2]) was 8 µg/mL (≈ 17.5 µM). It also gave an MIC (Staphylococcus aureus [3]; Mu50, 48 h) of 24 µg/mL (≈ 52.5 µM), an MIC (Staphylococcus aureus [4]) of 10 µg/mL (≈ 21.9 µM) and an MIC (Staphylococcus aureus [5]) of 8 µg/mL (≈ 17.5 µM). The MIC (Staphylococcus aureus [6]) was 8 µg/mL (≈ 17.5 µM), the MIC (Staphylococcus aureus [9]) was 24 µg/mL (≈ 52.5 µM) and the MIC (Staphylococcus aureus [10]) was 24 µg/mL (≈ 52.5 µM). The MIC (Staphylococcus aureus [7]) was 24 µg/mL (≈ 52.5 µM).

`Cc1onc(-c2ccccc2)c1C(=O)N[C@@H]1C(=O)N2[C@@H]1SC(C)(C)[C@@H]2C(=O)O` [OXACILLIN] showed an MIC (Staphylococcus aureus [1]; Mu50, 24 h) of over 256 µg/mL, an MIC (Staphylococcus aureus [8]) of over 256 µg/mL and an MIC (Staphylococcus aureus [2]) of over 256 µg/mL. It also gave an MIC (Staphylococcus aureus [3]; Mu50, 48 h) of over 256 µg/mL, an MIC (Staphylococcus aureus [4]) of 8 µg/mL (≈ 19.9 µM) and an MIC (Staphylococcus aureus [5]) of over 256 µg/mL. It also gave an MIC (Staphylococcus aureus [6]) of over 256 µg/mL, an MIC (Staphylococcus aureus [9]) of over 256 µg/mL and an MIC (Staphylococcus aureus [10]) of over 256 µg/mL. For the same compound, the MIC (Staphylococcus aureus [7]) was 8 µg/mL (≈ 19.9 µM).

In the case of `C[C@@H]1CN(c2c(F)c(N)c3c(=O)c(C(=O)O)cn(C4CC4)c3c2F)C[C@H](C)N1` [SPARFLOXACIN], the MIC (Staphylococcus aureus [1]; Mu50, 24 h) is reported as over 32 µg/mL, the MIC (Staphylococcus aureus [3]; Mu50, 48 h) is reported as over 32 µg/mL and the MIC (Staphylococcus aureus [4]) is reported as over 32 µg/mL. The MIC (Staphylococcus aureus [7]) was over 32 µg/mL.

Compound `CN(C)[C@@H]1C(O)=C(C(N)=O)C(=O)[C@@]2(O)C(O)=C3C(=O)c4c(O)cccc4[C@@](C)(O)[C@H]3C[C@@H]12` [TETRACYCLINE] has an MIC (Staphylococcus aureus [1]; Mu50, 24 h) of 32 µg/mL (≈ 72 µM), an MIC (Staphylococcus aureus [8]) of 48 µg/mL (≈ 108 µM) and an MIC (Staphylococcus aureus [2]) of 24 µg/mL (≈ 54 µM). The MIC (Staphylococcus aureus [3]; Mu50, 48 h) was 48 µg/mL (≈ 108 µM), the MIC (Staphylococcus aureus [4]) was 32 µg/mL (≈ 72 µM) and the MIC (Staphylococcus aureus [5]) was 24 µg/mL (≈ 54 µM). For the same compound, the MIC (Staphylococcus aureus [6]) was 24 µg/mL (≈ 54 µM), the MIC (Staphylococcus aureus [9]) was 48 µg/mL (≈ 108 µM) and the MIC (Staphylococcus aureus [10]) was 48 µg/mL (≈ 108 µM). The MIC (Staphylococcus aureus [7]) was 48 µg/mL (≈ 108 µM).

For `CN[C@H](CC(C)C)C(=O)N[C@H]1C(=O)N[C@@H](CC(N)=O)C(=O)N[C@H]2C(=O)N[C@H]3C(=O)N[C@H](C(=O)N[C@H](C(=O)O)c4cc(O)cc(O)c4-c4cc3ccc4O)[C@H](O)c3ccc(c(Cl)c3)Oc3cc2cc(c3O[C@@H]2O[C@H](CO)[C@@H](O)[C@H](O)[C@H]2O[C@H]2C[C@](C)(N)[C@H](O)[C@H](C)O2)Oc2ccc(cc2Cl)[C@H]1O` [VANCOMYCIN], the MIC (Staphylococcus aureus [1]; Mu50, 24 h) was 6 µg/mL (≈ 4.14 µM), the MIC (Staphylococcus aureus [8]) was 5 µg/mL (≈ 3.45 µM) and the MIC (Staphylococcus aureus [2]) was 4.5 µg/mL (≈ 3.11 µM). It also gave an MIC (Staphylococcus aureus [3]; Mu50, 48 h) of 7 µg/mL (≈ 4.83 µM), an MIC (Staphylococcus aureus [4]) of 0.5 µg/mL (≈ 0.345 µM) and an MIC (Staphylococcus aureus [5]) of 6 µg/mL (≈ 4.14 µM). The MIC (Staphylococcus aureus [6]) was 3.5 µg/mL (≈ 2.42 µM), the MIC (Staphylococcus aureus [9]) was 4 µg/mL (≈ 2.76 µM) and the MIC (Staphylococcus aureus [10]) was 7 µg/mL (≈ 4.83 µM). The MIC (Staphylococcus aureus [7]) was 1 µg/mL (≈ 0.69 µM).

GENTAMICIN showed an MIC (Staphylococcus aureus [1]) of 0.128 µg/mL, an MIC (Staphylococcus aureus [8]) of 0.064 µg/mL and an MIC (Staphylococcus aureus [2]) of 0.064 µg/mL. It also gave an MIC (Staphylococcus aureus [3]) of 0.128 µg/mL, an MIC (Staphylococcus aureus [4]) of 0.064 µg/mL and an MIC (Staphylococcus aureus [5]) of 0.064 µg/mL. For the same compound, the MIC (Staphylococcus aureus [6]) was 64 µg/mL, the MIC (Staphylococcus aureus [9]) was 0.064 µg/mL and the MIC (Staphylococcus aureus [10]) was 0.064 µg/mL. For the same compound, the MIC (Staphylococcus aureus [7]) was 0.064 µg/mL.
